Reference: ChEMBL document CHEMBL1201862, “PubChem BioAssay data set” (2004)
Calls of active or inactive are those of the source.

Columns and labels:
Caspase-6 = Caspase-6 (Homo sapiens, UniProt P55212); experiment: inhibition of CASP6 peptide cleavage – biochemical, VEID-R110 fluorescence, cherry-pick, dose response (AID 720632)
[1] = Luminescence-based cell-based high throughput dose response assay to identify activators of the DAF-12 from the parasite S. stercoralis (ssDAF-12).; type: functional
[2] = molecular target: T1, Oxysterols receptor LXR-beta (Homo sapiens, UniProt P55055); experiment: LXR agonists, Gal4 luciferase reporter, dose response, counter-screen for ssDAF-12 agonist project, cell-based, luminescence, HEK293, S. stercoralis campaign (AID 720737); type: functional; conditions: read-out: IC50 (the source's name)
T1 sequence (P55055 whole entry): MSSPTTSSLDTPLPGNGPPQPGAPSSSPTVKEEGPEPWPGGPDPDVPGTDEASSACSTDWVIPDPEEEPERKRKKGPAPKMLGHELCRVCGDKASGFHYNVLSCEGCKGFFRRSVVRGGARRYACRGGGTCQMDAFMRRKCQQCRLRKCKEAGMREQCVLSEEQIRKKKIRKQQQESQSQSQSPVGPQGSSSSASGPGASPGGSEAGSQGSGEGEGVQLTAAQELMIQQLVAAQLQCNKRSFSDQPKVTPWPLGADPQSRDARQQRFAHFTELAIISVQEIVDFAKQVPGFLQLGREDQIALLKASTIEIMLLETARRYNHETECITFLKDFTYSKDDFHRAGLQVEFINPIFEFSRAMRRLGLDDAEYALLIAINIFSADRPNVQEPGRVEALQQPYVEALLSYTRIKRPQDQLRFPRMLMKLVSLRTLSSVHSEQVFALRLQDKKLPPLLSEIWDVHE

[3] = blockers of bursicon-stimulated LGR2 cAMP reporter – cell-based, HEK293, CRE-luciferase reporter, cherry pick, set 2, dose response (AID 743343); type: functional;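 note: transfected cells were stimulated with diluted bursicon conditioned medium after compound addition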
[4] = blockade of melanocortin 4 receptor signaling – cell-based, plate reader, cherry pick, counter-screen for LGR2 antagonist project, dose response (AID 743444); type: functional;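 note: transfected HEK 293 cells stimulated with alpha-MSH peptide; potency of inhibitors of the alpha-MSH evoked signal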
[5] = viability loss in HEK293 cells – cell-based, plate reader, cherry-picked samples, cytotoxicity control, dose response (AID 743446); type: functional
[6] = molecular target: T2, Adenosylmethionine-8-amino-7-oxononanoate aminotransferase (Mycobacterium tuberculosis, UniProt P9WQ81); experiment: Mycobacterium tuberculosis BioA enzyme inhibitor Measured in Biochemical System Using Plate Reader - 2163-02_Inhibitor_Dose_CherryPick_Activity.; type: functional, Mycobacterium tuberculosis UT205
T2 sequence (P9WQ81 whole entry): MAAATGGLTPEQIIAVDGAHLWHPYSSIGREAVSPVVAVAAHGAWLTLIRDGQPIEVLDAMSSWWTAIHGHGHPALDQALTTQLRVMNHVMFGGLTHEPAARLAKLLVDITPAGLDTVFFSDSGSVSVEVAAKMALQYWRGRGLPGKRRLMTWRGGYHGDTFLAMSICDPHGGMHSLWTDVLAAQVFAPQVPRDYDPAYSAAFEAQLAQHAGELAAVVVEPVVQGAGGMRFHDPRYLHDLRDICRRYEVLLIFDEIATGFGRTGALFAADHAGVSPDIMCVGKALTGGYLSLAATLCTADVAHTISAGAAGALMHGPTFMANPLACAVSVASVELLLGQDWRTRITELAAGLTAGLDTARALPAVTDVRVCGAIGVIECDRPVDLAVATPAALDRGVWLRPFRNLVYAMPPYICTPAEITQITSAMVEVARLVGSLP

[7] = OVCAR8 cell viability loss – plate reader, dry powder samples, PAX8 project, dose response (AID 743197); type: functional, cell-based; conditions: OVCAR-8
Paired box protein Pax-8 = Paired box protein Pax-8 (Homo sapiens, UniProt Q06710); experiment: PAX8 transcriptional activity inhibition in RMG-I – RMG-I cells, luciferase, cherry-pick, dose response (AID 687027); type: functional, cell-based;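 note: luciferase reporter driven by Pax8 target thyroperoxidase promoter measured by SteadyGlo luminescence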
[8] = OVCAR-3 cell viability loss – plate reader, dry powder samples, PAX8 inhibitor project, dose response (AID 743044); type: functional, cell-based
[9] = IGROV1 cell killing – plate reader, dry powder samples, PAX8 inhibitor project, dose response (AID 743043); type: functional, cell-based; conditions: IGROV-1
[10] = rise of 2N DNA cells, HeLa – IC50, dose response (AID 1117349); type: functional, cell-based
[11] = rise of 4N DNA cells, HeLa – IC50, dose response (AID 1117351); type: functional, cell-based
[12] = growth inhibition of yeast DHODH-expressing 3D7 parasites – SYBR Green, dry powder samples, dose response (AID 1159570); type: functional, cell-based;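 note: parasite growth measured after 72 hours of compound exposure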
[13] = toxicity to human HepG2 hepatoma cells – cell-based, plate reader, dry powder samples, cytotoxicity control, dose response (AID 1159569); type: functional;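 note: inhibitor potency with signal falling toward the positive control level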
[14] = P. falciparum Dd2 growth inhibitors, dose response, SYBR Green, cherry-picked samples (AID 1159567); type: functional, cell-based
[15] = Dd2 malaria parasite growth inhibition potency – SYBR Green, dry powder samples, dose response (AID 1159566); type: functional, cell-based;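 note: potency for growth inhibition with lower SYBR green DNA signal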
[16] = toxicity to human hepatoma HepG2 cells – cell-based, cherry-picked samples, cytotoxicity control, dose response (AID 1159577); type: functional
[17] = growth inhibition of PfATP4-mutant resistant parasites – NITD609-resistant line, SYBR Green, dry powder, dose response (AID 1159571); type: functional, cell-based;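 note: parasites synchronized at ring stage by sorbitol before testing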
[18] = CellTiter-Glo luminescence survival assay, SW480 colon tumor line, concentration-response curve, half-maximal inhibitory concentration (AID 1117338); type: functional
[19] = RKO cell viability reduction, dose response, CellTiter-Glo luminescence (AID 1117322); type: functional
[20] = cytotoxicity toward HCT116 cells – cell-based, CellTiter-Glo luminescence, IC50, dose response (AID 1117332); type: functional; conditions: HCT-116
[21] = SNU-C1 cell viability reduction, dose response, CellTiter-Glo luminescence (AID 1117323); type: functional, cell-based
[22] = cytotoxicity toward Colo320 cells – cell-based, CellTiter-Glo luminescence, IC50, dose response (AID 1117334); type: functional; conditions: COLO 320
[23] = cytotoxicity toward HT-29 cells – cell-based, CellTiter-Glo luminescence, IC50, dose response (AID 1117330); type: functional
[24] = Reduced DLD-1 viability, concentration-response, CellTiter-Glo luminescence (AID 1117352); type: functional
[25] = HCT116 cell viability decrease, GSK3B pretreatment – CellTiter-Glo, IC50, dose response (AID 1117339); type: functional; conditions: HCT-116
P388/ADR = experiment: cells; type: functional; conditions: Mus musculus
SN12K1 = experiment: cells; type: functional; conditions: Homo sapiens
P388 = experiment: cells; type: functional; conditions: Mus musculus

Caspase-6, sequence (P55212 24-179 limits assumed): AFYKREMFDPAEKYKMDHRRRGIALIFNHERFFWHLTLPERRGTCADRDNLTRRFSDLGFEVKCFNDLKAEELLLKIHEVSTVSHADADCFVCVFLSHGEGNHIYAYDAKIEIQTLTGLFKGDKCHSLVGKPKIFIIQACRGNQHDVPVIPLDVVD
Caspase-6, sequence (P55212 194-293 limits assumed): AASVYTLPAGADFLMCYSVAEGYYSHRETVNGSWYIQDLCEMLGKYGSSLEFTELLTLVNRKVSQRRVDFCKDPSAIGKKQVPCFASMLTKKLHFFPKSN
Paired box protein Pax-8, sequence (Q06710 whole entry): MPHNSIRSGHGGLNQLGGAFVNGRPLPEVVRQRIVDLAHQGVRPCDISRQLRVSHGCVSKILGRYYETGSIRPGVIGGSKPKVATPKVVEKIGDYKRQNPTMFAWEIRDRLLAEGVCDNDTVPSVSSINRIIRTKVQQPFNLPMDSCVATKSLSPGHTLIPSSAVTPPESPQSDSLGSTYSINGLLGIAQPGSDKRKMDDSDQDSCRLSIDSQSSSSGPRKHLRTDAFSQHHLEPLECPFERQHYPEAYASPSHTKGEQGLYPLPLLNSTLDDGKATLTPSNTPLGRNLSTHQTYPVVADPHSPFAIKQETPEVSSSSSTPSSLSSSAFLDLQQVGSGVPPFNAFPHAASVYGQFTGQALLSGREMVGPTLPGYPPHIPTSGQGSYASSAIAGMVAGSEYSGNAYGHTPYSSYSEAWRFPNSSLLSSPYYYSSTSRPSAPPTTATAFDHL

For O=Cc1ccc(Oc2nc(Cl)ncc2F)cc1, the AC50 (Caspase-6) was 9.13 µM (active).
In the case of O=C(Cc1c[nH]c2ccccc12)NNCc1ccc(N(CCCl)CCCl)cc1, the IC50 [1] is reported as > 67.5 µM (inactive) and the EC50 [2] is reported as > 67.5 µM (inactive).
For CC(C)N(C)c1ncnc2c1ncn2[C@H]1CN(Cc2cccnc2)C[C@@H](CO)O1, the IC50 [1] was > 67.5 µM (inactive) and the EC50 [2] was > 67.5 µM (inactive).
In the case of FC(F)(F)c1cccc(CC2CN(Cc3ccccc3)Cc3ccccc3N2c2cc(Cl)cc(Cl)c2)c1 (stereo not drawn), the AC50 [3] is reported as 22.2 µM (active), the AC50 [4] is reported as 12.5 µM (active) and the AC50 [5] is reported as > 52 µM (inactive).
With COc1ccc(-c2ccc3c(c2)[C@H]2[C@H](CCN2C(=O)Cc2cccnc2)[C@H](CO)N3C)cc1 the AC50 [6] was 1.57 µM (active) and the AC50 [7] was > 70 µM (inactive).
With C[C@@H]1CCCCO[C@H](CN(C)Cc2ccc(C(F)(F)F)cc2)[C@@H](C)CN([C@@H](C)CO)C(=O)c2cc(NC(=O)Cc3ccccc3)ccc2O1 the AC50 (Paired box protein Pax-8) was 9.25 µM (active), the AC50 [8] was 35.2 µM (active) and the AC50 [9] was 64.6 µM (active).
For CCCCCCCCCCOCC(O)CN (stereo not drawn), the IC50 [10] was > 10 µM (inactive) and the IC50 [11] was > 10 µM (inactive).
With COc1ccccc1NC(=O)N1CCCCN2[C@H](CO)[C@H](c3ccc(C#CC4CC4)cc3)[C@H]2C1 the AC50 [12] was 1.74 µM (active), the AC50 [13] was 18.4 µM (active) and the AC50 [14] was 2.69 µM (active). For the same compound, the AC50 [15] was 1.2 µM (active), the AC50 [16] was 20.3 µM (active) and the AC50 [17] was 1.74 µM (active).
In the case of C/C=C/c1ccc([C@H]2[C@@H](CO)N(c3nc(C)c(C)s3)[C@@H]2CNCC(C)C)cc1, the AC50 [12] is reported as 0.915 µM (active), the AC50 [13] is reported as 44.1 µM (active) and the AC50 [14] is reported as 0.861 µM (active). For the same compound, the AC50 [15] was 0.227 µM (active), the AC50 [16] was > 39 µM (inactive) and the AC50 [17] was 0.473 µM (active).
With Cc1cccc(C)c1NC(=O)CC12CCCN1CCC2 [PILSICAINIDE] the IC50 [18] was > 20 µM (inactive), the IC50 [19] was > 20 µM (inactive) and the IC50 [20] was > 20 µM (inactive). The IC50 [21] was > 20 µM (inactive), the IC50 [22] was > 20 µM (inactive) and the IC50 [23] was > 20 µM (inactive). For the same compound, the IC50 [24] was > 20 µM (inactive) and the IC50 [25] was > 20 µM (inactive).
For OC[C@H]1O[C@@H](n2cnc3c(S)ncnc32)[C@H](O)[C@@H]1O [THIOINOSINE], the GI50 (P388/ADR) was 1140 µM (inactive), the GI50 (SN12K1) was 1780 µM (inactive) and the GI50 (P388) was 1240 µM (inactive). For the same compound, the IC50 [10] was > 10 µM (inactive), the IC50 [18] was 0.0287 µM (active) and the IC50 [19] was 0.0144 µM (active). For the same compound, the IC50 [20] was 0.0286 µM (active), the IC50 [21] was 2.19 µM (active) and the IC50 [22] was 1.06 µM (active). The IC50 [11] was > 10 µM (inactive), the IC50 [23] was 0.118 µM (active) and the IC50 [24] was 0.063 µM (active). The IC50 [25] was 0.504 µM (active).
